The term mass density denotes the mass of a sample divided by its volume.

In the NIST ThermoML archive (doi:10.1021/je2011314) one finds mass density data, which are given here for eight molecules.

For data set [1] the following is noted: 298.15 K; 101.33 kPa; Liquid; Vibrating tube method.
Data set [2] can be described thus: xn = mol fraction of the nth substance listed. To be noted: 298.15 K, 101 kPa, Liquid, Vibrating tube method.

± gives the expanded uncertainty stated by the source.

For `CC(C)CC(C)(C)C` [2,2,4-trimethylpentane], in data set [1], the mass density is 687.62 ± 0.62 kg/m3.
Consider `COC(C)(C)C` [2-methoxy-2-methylpropane], for which the mass density in data set [1] came out at 735.21 ± 0.62 kg/m3.
In the case of `COC(C)(C)C` [2-methoxy-2-methylpropane] + CC(C)CC(C)(C)C, the mass density in data set [2] (x2 = 0.2997) stood at 716 ± 0.17 kg/m3; in data set [2] (x2 = 0.3004), 715.84 ± 0.17 kg/m3; in data set [2] (x2 = 0.3012), 715.86 ± 0.17 kg/m3; in data set [2] (x2 = 0.5018), 705.83 ± 0.18 kg/m3; in data set [2] (x2 = 0.5019) it was 705.9 ± 0.18 kg/m3; in data set [2] (x2 = 0.5037), 705.72 ± 0.18 kg/m3. Further, the mass density was determined as 698.67 ± 0.18 kg/m3 in data set [2] (x2 = 0.6707), 697.4 ± 0.18 kg/m3 in data set [2] (x2 = 0.7056) and 697.17 ± 0.18 kg/m3 in data set [2] (x2 = 0.7134).
On to `CC(C)OC(C)C` [diisopropyl ether], for which the mass density in data set [1] is 718.24 ± 0.64 kg/m3.
Consider `CC(C)OC(C)C` [diisopropyl ether] + CC(C)CC(C)(C)C, for which the mass density in data set [2] (x2 = 0.3056) stood at 706.86 ± 0.22 kg/m3; in data set [2] (x2 = 0.3066), 706.7 ± 0.22 kg/m3; in data set [2] (x2 = 0.5009), 700.59 ± 0.21 kg/m3; in data set [2] (x2 = 0.5027), 700.42 ± 0.21 kg/m3; in data set [2] (x2 = 0.5046), 700.41 ± 0.21 kg/m3; in data set [2] (x2 = 0.7004), 694.83 ± 0.19 kg/m3. Further, the mass density in data set [2] (x2 = 0.7009) and in data set [2] (x2 = 0.7025) was 694.86 ± 0.19 kg/m3 in each case.
With `CCO` [ethanol], the mass density in data set [1] worked out at 785.31 ± 0.62 kg/m3.
Same read-out and setting: in the case of `CO` [methanol] it was 786.56 ± 0.61 kg/m3; in that of `CCCO` [propan-1-ol], 799.7 ± 0.62 kg/m3.
